Values quoted from earlier work as cited in patent US20030143291A1, “Herbal compositions and methods for diabetes and weight loss management” (priority 2002, published 2003).

Legend:
[1] = system: Methicillin-resistant s. aureus

CC(C)C1=C2CCC(COC(=O)c3ccc(O)cc3)=CCC2(C)CC1 (centres unmarked) [Compound 6, 14-(4′-hydroxybenzoyloxy)dauc-4,8-diene]
antimicrobial activity against Methicillin-resistant s. aureus [1]: antimicrobial activity
antimicrobial activity against Staphylococcus aures (Staphylococcus aures): antimicrobial activity
